Bridge positions count the residues as written; N and C are the ends.
Assays:
[1] = test system: alpha-carbonic anhydrase (CA) esterase activity in mussel mantle edge; experiment: Esterase (carbonic anhydrase) activity in mantle after ex-vivo incubation; design: species or system Mytilus galloprovincialis; details: after exposure to CALCIIa 10 μM or ouabain 2 mM; 4-Nitrophenyl acetate substrate; n = 6
Protocol: (A) Esterase activity and (B) Acid phosphatase activity. Enzyme activity was quantified in protein extracts from the mantle of control or challenged samples that were incubated with the mussel CALCIIa peptide. Values represent the mean ± SEM (CA, n = 6 and TRAP, n = 10) performed in duplicate. Prism GraphPad v5 software was used to assess the significance of the differences between the groups using One-way Anova and Tukey’s multiple comparison test. […] C - control; P - peptide (10 μM); O - ouabain (2 mM), OP - ouabain (2 mM) and peptide (10 μM); PreOP - pre stimulation for 1 hour with the peptide and 4 hours incubation with OP.
The posterior mantle edge region of the Mediterranean mussel was collected and washed in culture medium. The composition of the culture medium was as described in[91] […] The culture medium was supplemented with heat inactivated 2% FBS (SIGMA-ALDRICH), 0.1% penicillin: streptomycin antibiotic mix (10.000 U:10 mg/ml, SIGMA-ALDRICH) and 250 μg/ml sterile filtered 1:100 amphotericin B solution (Sigma-Aldrich). The posterior mantle edge from mussels was collected into culture medium and cut into fragments of approximately 1–2 mm in length. […]
Esterase activity in the mussel posterior mantle edge (n = 6/experimental group) was quantified using a colorimetric assay that measures the conversion of the substrate 4-Nitrophenyl acetate to p-nitrophenolate[92]. […]

mussel mantle edge = experiment: Ex-vivo incubation of mantle edge fragments, calcium quantification by MP-AES; design: species or system Mytilus galloprovincialis; details: 4 h at 19-20 °C; CALCIIa 10 μM or ouabain 2 mM alone; MP-AES at 393.366 nm; mean ± SEM; control 400.67 ±13.83 ppm; SEM
Protocol: Figure 7 Effect of the mussel calcitonin-like peptide on (A) calcium (ppm) concentration in the mantle edge and (B) calcium uptake by mantle cells of the Mediterranean mussel. (A) The quantity of calcium (ppm) present in the mantle edge after mussel CALCIIa peptide incubation was measured using a Microwave Plasma-Atomic Emission Spectrometer (MP-AES, Agilent) at 393.366 nm. A standard curve for calcium was performed before analysing the samples. In vitro mantle assays with CALCIIa peptide and with ouabain and control (culture medium and mantle) were repeated on at least 3 independent occasions. For each assay at least ten replicates were performed and the mantle edge distal to the umbo was used (one mantle fragment per replica). Prism GraphPad v5 software was used to assess the significance of differences between the groups using a One-way Anova and Tukey’s multiple comparison test. […] C - control (no peptide or ouabain); P - peptide (10 μM); O - ouabain (2 mM), OP - ouabain (2 mM) and peptide (10 μM); PreOP - pre -stimulation for 1 hour with the peptide followed by 4 hours incubation with OP. (B) Digital photographs of the mussel mantle cells in the presence (CALCIIa, 10 μM) or absence (control) of the mussel CALCIIa peptide. Calcium ions were stained with 50 mM of Calcein (green) and cell nuclei (blue) with DAPI (Acros Organics). An increase in cellular fluorescence represents an increase in calcium uptake. Fluorescence of the CALCIIa peptide stimulated cells was 1.9 times higher than the control. The average mantle cell size was 3–4 μm and fluorescent images were taken using a Leica DM IL microscope coupled to a Visicam HDMI 6 digital camera and photographs were analysed using ImageJ software (v. 1.52a) to calculate the fluorescence intensity and for image overlay. The scale bar is indicated.
The posterior mantle edge region of the Mediterranean mussel was collected and washed in culture medium. The composition of the culture medium was as described in[91] […]

In the case of “H-CTWGGGMSDEMCSTVDIDEIQRSFQVIHDRNSP-NH2 (disulfide 1-12 (inferred)) [CALCIIa, Mediterranean mussel calcitonin-like mature peptide, 33 aa, synthesized with disulphide bond and C-terminal amidation]”, the “CA esterase activity in mantle edge (in words)” value [1] is reported as “No change” and the “Calcium in the mantle edge after incubation” value (mussel mantle edge) is reported as 513.38 ± 24.33 ppm.

— article PMC7200681, “The calcitonin-like system is an ancient regulatory system of biomineralization” (Scientific Reports, 2020)
